The values that follow come from PMC3532304, “Piperidinols That Show Anti-Tubercular Activity as Inhibitors of Arylamine N-Acetyltransferase: An Essential Enzyme for Mycobacterial Survival Inside Macrophages” (PLoS ONE, 2012).

As a reminder, the IC50 is the concentration needed to halve the response being measured. Low readings indicate greater potency in that assay, high ones weaker potency in that assay. For orientation: inhibition means the drop in the measured response relative to a control, in per cent.

The structures appear in SMILES notation. Converted amounts (≈) assume the structure as drawn. “And” between values parts separate entries of the source, which are not always exact repeats. Equal values may be shown once. Read-outs that look alike come from different tables or passages of the source.

In data set [1] the target is T1, TBNAT (Mycobacterium tuberculosis, UniProt P9WJI5).
T1 construct: made in house
Put plainly: ESI-MS analysis of covalent enzyme-inhibitor adducts. It is filed as binding, M. tuberculosis. Conditions: ratio not stated.

Data set [2] deals with T2, MMNAT (Mycobacterium marinum, UniProt B2HIZ6). The data set is described as above. In kind it is binding, M. marinum. As to conditions: enzyme-to-inhibitor ratio 1∶1; for Δm of enzyme-inhibitor adduct (MMNAT): 24°C, 30–60 min; for Molar ratio (inhibitor/protein) (MMNAT): proposed number of inhibition species bound per protein molecule. The method, then:
ESI-MS was performed as described previously. A sample of 2.5 mg/mL (80 µM) MMNAT was analyzed on a Micromass LCT mass spectrometer. The samples were pretreated with DMSO or 0.08–1.2 mM inhibitor dissolved in DMSO to a final percentage of 5% (v/v) DMSO and incubated for 30–60 min before analysis. ESI-MS analysis was performed in positive ion mode after denaturation in 50% v/v acetonitrile in water with an accuracy of ±0.1%. The sample was run over a desalting column prior to MS analysis.

In a further data set the test system is NAT. Put plainly: Inhibition of NAT activity by PVK. As to conditions: within 10 minutes, at less than 1 µM. It is filed as biochemical.
A further data set has as its system M. tuberculosis H37Rv. The data set is described as follows: Mycobacterial growth inhibition in vitro (spot culture on solid medium). As to conditions: for MIC M. tuberculosis: H37Rv, solid 7H10-OADC medium, no growth after 2 weeks; for MIC: Mycobacterium tuberculosis, H37RV, 336 h, read-out: MIC M. tuberculosis. It is filed as cell-based.
The target of data set [3] is T2, MMNAT. Put plainly: NAT-inhibition assay (Ac-CoA hydrolysis with hydralazine, Ellman's reagent). Conditions: for IC50: mean ± S.D.; for inhibition at 50 µM: read-out: MMNAT % Inhibition. In kind it is biochemical, M. marinum. The method, then:
(§1) An assay for measuring the formation of CoA was used to determine the activity of the enzyme in the presence of potential inhibitors. All the tested compounds were dissolved in dimethylsulphoxide (DMSO) and all reactions were carried out in the presence of 5% (v/v) DMSO. The enzyme (100–150 ng) was mixed with the inhibitors 1–5 (5 µL at a final concentration of 0–250 µM) and incubated for 15 min at 24°C prior to starting the reaction by adding 15 µL hydralazine and 12 µL Ac-CoA at final concentrations of 150 µM and 120 µM respectively, in a final total volume of 100 µL of 20 mM Tris-HCl pH 8. The assay was performed as an end-point read out measurement by stopping the reaction after 10 min at 24°C using 25 µL Ellman's reagent (5 mM 5,5′-dithiobis-(2-nitrobenzoate) solution in 6.4 M guanidine-HCl and 100 mM Tris-HCl, pH 7.3). The absorbance was measured at a wavelength of 405 nm within 2 min (Tecan Sunrise Plate Reader). The assays were repeated using a 10-fold enzyme concentration to exclude promiscuous non-specific inhibitors. The activity of the enzyme in the presence of 5% (v/v) DMSO was measured as a control. Inhibition values were determined as the ratio of the enzyme activity (expressed as the rate of CoA formation per microgram protein (µM/min.µg)) with the requisite compound, to the activity of the control without inhibitor. IC50 values were determined from the inhibition curves which were obtained by non-linear fitting of the % inhibition and the inhibitor concentration (µM) using the Log(inhibitor) vs. response module of GraphPad Prism 5.0.

Data set [4] concerns the target T2, MMNAT. The data set is described as follows: Time-dependent inhibition assay (Kitz and Wilson model). In kind it is biochemical, M. marinum. As to conditions: 24°C. The procedure: The time course of the inhibition of NAT by the piperidinols was evaluated according to the Kitz and Wilson model. Irreversible inhibition, progressive with time, was measured for the piperidinol inhibitors (1–5) by the protocol described in Figure S2, and the values of the apparent first order constant (kobs) were determined (Table 1). Dilution rather than dialysis was used in this protocol due to the likely loss of activity upon dialysis (Figure 3). […] Examples of the curves obtained for enzyme activity against incubation time upon inhibition of MMNAT and TBNAT by the piperidinols are shown in Figure 4.
For the determination of the time dependence of interaction between enzymes and inhibitors, the inhibitor was diluted to less than 1% concentration. Incubation mixtures (20 µL) contained 0.06 mM MMNAT or TBNAT in 20 mM Tris-HCl, pH 8 and 5% (v/v) DMSO and variable concentrations of the inhibitors (0–50 µM) were prepared using the protocol described in Figure S1. Aliquots of 1 µL were removed from the reaction mixture at different time points (incubation-time) and diluted to 100 µL using the assay buffer containing HLZ and Ac-CoA to the final concentrations of 150 µM and 120 µM, respectively. The rate of Ac-CoA hydrolysis was measured over a three-minute time period. The reaction was stopped with 25 µL Ellman's reagent in 6.4 M guanidine and the absorbance was measured at a wavelength of 405 nm. The residual activity was measured as a percentage of a control prepared as described in Figure S1 and plotted against the incubation-time. The data were fitted using the Semilog line (X is linear, Y is Log) module of GraphPad Prism 5.0. The slope of each line is equivalent to (−kobs/2.303) at each inhibitor concentration.The controls in which no enzyme was present using CoA and Ellman's reagent gave the same results whether compound 1 was present or not.

Data set [5] has as its target T1, TBNAT. Put plainly: NAT-inhibition assay (Ac-CoA hydrolysis with hydralazine, Ellman's reagent). In kind it is biochemical, M. tuberculosis. Conditions: for IC50: mean ± S.D.; for inhibition at 50 µM: read-out: TBNAT % Inhibition. The procedure:
as §1

For the next data set, the system named is M. bovis BCG. The data set is described as follows: microbe, parasite or virus in culture. It is filed as cell-based. As to conditions: for MIC M. bovis BCG: solid 7H10-OADC medium, no growth after 2 weeks; for MIC: Mycobacterium tuberculosis variant bovis BCG, BCG, 336 h, read-out: MIC M. bovis BCG.
Details of data set [6]: method as in PMID 16032973. As to conditions: cited from earlier work.
Where [7] appears, read: 50 µM inhibitor, 150 µM HLZ, 120 µM Ac-CoA, 24°C, mean ± S.D. of triplicate.
The mark [8] stands for this setting: 150 µM HLZ, 120 µM Ac-CoA, 24°C.

T1 sequence (P9WJI5 whole entry): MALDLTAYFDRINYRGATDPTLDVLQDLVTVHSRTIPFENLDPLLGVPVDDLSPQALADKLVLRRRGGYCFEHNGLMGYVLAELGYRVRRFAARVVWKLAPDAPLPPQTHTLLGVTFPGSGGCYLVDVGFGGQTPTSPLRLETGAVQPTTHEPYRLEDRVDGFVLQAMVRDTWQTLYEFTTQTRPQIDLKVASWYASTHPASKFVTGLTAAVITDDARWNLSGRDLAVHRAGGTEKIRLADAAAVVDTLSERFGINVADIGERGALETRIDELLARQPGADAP
T2 sequence (B2HIZ6 entry or part of it): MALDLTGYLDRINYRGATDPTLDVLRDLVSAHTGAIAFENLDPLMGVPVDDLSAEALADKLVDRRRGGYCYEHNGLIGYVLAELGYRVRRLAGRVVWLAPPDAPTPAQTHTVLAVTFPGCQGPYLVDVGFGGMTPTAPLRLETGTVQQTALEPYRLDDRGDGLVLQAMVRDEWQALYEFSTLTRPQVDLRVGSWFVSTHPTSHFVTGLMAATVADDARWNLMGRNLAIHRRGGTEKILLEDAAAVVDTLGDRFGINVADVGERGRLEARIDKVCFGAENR

`C=CC(=O)c1ccccc1` [PVK, phenyl vinyl ketone, reference compound]: the “mass difference of enzyme adduct (TBNAT)” value at TBNAT [1] came out at 132. Further, at MMNAT [2], the “Δm of enzyme-inhibitor adduct (MMNAT)” value came out at 132 Da and the “Molar ratio (inhibitor/protein) (MMNAT)” value was 1. Also, in the data set with NAT, the “inhibition of the NAT activity” value is recorded as 100%.

For `CN1CCC(O)(c2ccc(Cl)cc2)C(C(=O)c2ccc(Cl)cc2)C1` (stereo not shown) [compound 2], in the data set with M. tuberculosis H37Rv, the “MIC M. tuberculosis” value is 2.7 to 13.7 µM. In addition, the “MMNAT % Inhibition” value at MMNAT [3] (setting [7]) was found to be 103±2%. The IC50 at MMNAT [3] (setting [8]) stood at 160 ± 10 nM. Moreover, the MMNAT kobs at MMNAT [4] (inhibitor at 11.9 µM) is 110±2 10^−3 min^−1. Also, on TBNAT [5] (setting [7]), the “TBNAT % Inhibition” value was determined as 98±1%. On TBNAT [5] (setting [8]), this compound yielded an IC50 of 1600 ± 100 nM. Further, the “MIC M. bovis BCG” value in the data set on M. bovis BCG was in the range of 17.3 to 34.3 µM. Besides, on MMNAT [2], the “Δm of enzyme-inhibitor adduct (MMNAT)” value is 164 Da and 164.3 Da; the “Molar ratio (inhibitor/protein) (MMNAT)” value stood at 1.

`O=C(c1ccccc1)C1CN(C2CCCCC2)CCC1(O)c1ccccc1` (stereo not shown) [compound 3]: the figures for the MIC in the data set with M. tuberculosis H37Rv and in the data set with M. bovis BCG were 2.8 to 13.8 µM (≈ 1.02 to 5.02 µg/mL) and 17.3 to 34.4 µM (≈ 6.29 to 12.5 µg/mL), respectively. The figures for the inhibition at 50 µM at MMNAT [3] and at TBNAT [5] were 103 ± 1% and 72 ± 60%, respectively. The MMNAT kobs at MMNAT [4] (inhibitor at 5.9 µM) is on record as 573±18 10^−3 min^−1. On TBNAT [5] (setting [8]), the IC50 is 4400 ± 100 nM. At MMNAT [2], the “Δm of enzyme-inhibitor adduct (MMNAT)” value was 132 Da and 131.5 Da. Also, the “Molar ratio (inhibitor/protein) (MMNAT)” value at MMNAT [2] is 1.

Take `CC1(C)CC(N2CCC(O)(c3ccccc3)C(C(=O)c3ccccc3)C2)CC(C)(C)N1` (stereo not shown) [compound 4]: the results for the MIC in the data set on M. tuberculosis H37Rv and with M. bovis BCG were 2.3 to 11.7 µM (≈ 0.967 to 4.92 µg/mL) and 14.8 to 29.3 µM (≈ 6.22 to 12.3 µg/mL), respectively. Besides, the inhibition at 50 µM on MMNAT [3] (setting [7]) is 100 ± 2%; on TBNAT [5] (setting [7]), 67 ± 4%. The IC50 came to 2700 ± 400 nM at MMNAT [3] (setting [8]) and 1100 ± 300 nM on TBNAT [5] (setting [8]). On MMNAT [4] (inhibitor at 11.9 µM), the MMNAT kobs is 586±115 10^−3 min^−1. Further, the “Δm of enzyme-inhibitor adduct (MMNAT)” value at MMNAT [2] is 132 Da and 130.5 Da. The “Molar ratio (inhibitor/protein) (MMNAT)” value on MMNAT [2] is 1.

As to `CN(CCC(=O)c1ccccc1)CCC(=O)c1ccccc1` [compound 5], the “MIC M. tuberculosis” value in the data set with M. tuberculosis H37Rv is 3.4 to 16.9 µM. Further, the “MMNAT % Inhibition” value on MMNAT [3] (setting [7]) was 101±2%. 140 ± 20 nM corresponded to half-maximal inhibition at MMNAT [3] (setting [8]) (IC50). Moreover, the MMNAT kobs at MMNAT [4] (inhibitor at 11.9 µM) was 34±2 10^−3 min^−1. Besides, the “toxicity compared to the cyclic piperidinol” value in data set [6] is “greater toxicity”. Besides, the “TBNAT % Inhibition” value on TBNAT [5] (setting [7]) turned out to be 101±2%. The half-maximal inhibitory concentration (IC50) at TBNAT [5] (setting [8]) is 1200 ± 100 nM. For the same compound, in the data set on M. bovis BCG, the “MIC M. bovis BCG” value lay in the range of 21.3 to 42.3 µM. Further, on MMNAT [2], the “Δm of enzyme-inhibitor adduct (MMNAT)” value is 132 Da and 129.7 Da; the “Molar ratio (inhibitor/protein) (MMNAT)” value came out at 1.
